Assays:
H209 = experiment: Survival of cancer cells after gemcitabine, H209; format: cell-based; settings: H209 SCLC in vitro model
Description: (§1) SCLC cell lines were incubated with dimethyl sulfoxide (vehicle control), SRA737 or Gemcitabine for 96 hours at nine distinct concentrations, with the maximum dose being 10 μM. A CellTiter-Glo luminescent cell viability assay (Promega) was performed after 96 hours of treatment as per the manufacturer's specifications. IC50 values were estimated using Drexplorer, as previously described (Tong P, Coombes K R, Johnson F M, Byers L A, Diao L, Liu D D, Lee J J, Heymach J V, Wang J. drexplorer: A tool to explore dose-response relationships and drug-drug interactions. Bioinformatics. 2015 May 15; 31(10):1692-4.)

H524 = experiment: Survival of cancer cells after gemcitabine, H524; format: cell-based; settings: H524 SCLC in vitro model
Description: as §1

RPP = experiment: Survival of cancer cells after gemcitabine, RPP; format: cell-based, murine; settings: RPP SCLC in vitro model
Description: Data presented as mean±SD and p values by t-test ***p<0.001.
as §1

RPP tumor = experiment: Flank RPP (SCLC) tumor growth in B6129F1 immunocompetent mice; format: in vivo, mouse; settings: anti-PD-L1 300 μg 1-day-on/6-days-off; LDG 40 mg/kg 1-day-on/6-days-off; SRA737 100 mg/kg 2-day-on/5-days-off
Description: Tumors were evaluated twice weekly for the duration of the study. Tumor volumes were measured on all mice three times per week and calculated (width^2×length×0.4) using manual calipers. Once the average tumor size was in the range of 120-150 mm^3, mice were randomized into dosing groups using stratified sampling by assigning three animals per group for short-term reverse-phase protein array analysis and long-term treatment. Dosing schedules and duration varied depending on the study. Mice were weighed three times per week for the duration of the study, and a decrease in body weight >15% was considered indicative of a toxic dose. The Student t-test was used to determine statistical significance between compound- and vehicle-treated groups.
[…] 15A.

IFNβ, CXCL10 and CCL5 = experiment: qPCR of IFNβ, CXCL10 and CCL5 in resected RPP tumors; format: in vivo, mouse; settings: RPP tumors resected at Day 21; SRA737 2-days-on/5-days-off
Description: Data presented as mean±SD and p values by t-test * p<0.05, **p<0.01, ***p<0.001.
Real-time PCR was done using SYBR Select Master Mix (Life Technologies, cat #4472908) according to the manufacturer's protocol. Primers were purchased from Sigma Aldrich, Inc. Triplicate PCR reactions were run on ABI (7500 Fast Real Time PCR System). The comparative Ct method using the average 2ΔΔCT value for each set of triplicates was used, and the average of the biological replicates was calculated. Negative controls were included for every primer set, and GAPDH was used as the […].

## Nc1ccn([C@@H]2O[C@H](CO)[C@@H](O)C2(F)F)c(=O)n1 [gemcitabine]
H209
  response of cancer cells to gemcitabine alone: resistant
H524
  response of cancer cells to gemcitabine alone: resistant
RPP
  response of cancer cells to gemcitabine alone: resistant
RPP tumor
  anti-tumor effect (tumor volume): no significant anti-tumor effect
IFNβ, CXCL10 and CCL5
  expression of IFNβ, CCL5 and CXCL10: Neither LDG nor SRA737 monotherapy (2-days-on/5-days-off) showed any significant effect

— patent US20220184091A1, “Methods of Treating Cancer with Chk1 Inhibitors” (Sierra Oncology, Inc., priority 2019, published 2022)
